Values of other authors in US20050187388A1, “Method for the preparation of aryl ethers” (priority 2004, published 2005).

Tests used:
[1] = molecular target: serotonin reuptake (Homo sapiens, UniProt P31645)
[2] = test system: 8-OH-DPAT hypothermia; details: in vivo
[3] = molecular target: dopamine reuptake (Homo sapiens, UniProt Q01959)
Sequence of dopamine reuptake (Q01959 whole entry): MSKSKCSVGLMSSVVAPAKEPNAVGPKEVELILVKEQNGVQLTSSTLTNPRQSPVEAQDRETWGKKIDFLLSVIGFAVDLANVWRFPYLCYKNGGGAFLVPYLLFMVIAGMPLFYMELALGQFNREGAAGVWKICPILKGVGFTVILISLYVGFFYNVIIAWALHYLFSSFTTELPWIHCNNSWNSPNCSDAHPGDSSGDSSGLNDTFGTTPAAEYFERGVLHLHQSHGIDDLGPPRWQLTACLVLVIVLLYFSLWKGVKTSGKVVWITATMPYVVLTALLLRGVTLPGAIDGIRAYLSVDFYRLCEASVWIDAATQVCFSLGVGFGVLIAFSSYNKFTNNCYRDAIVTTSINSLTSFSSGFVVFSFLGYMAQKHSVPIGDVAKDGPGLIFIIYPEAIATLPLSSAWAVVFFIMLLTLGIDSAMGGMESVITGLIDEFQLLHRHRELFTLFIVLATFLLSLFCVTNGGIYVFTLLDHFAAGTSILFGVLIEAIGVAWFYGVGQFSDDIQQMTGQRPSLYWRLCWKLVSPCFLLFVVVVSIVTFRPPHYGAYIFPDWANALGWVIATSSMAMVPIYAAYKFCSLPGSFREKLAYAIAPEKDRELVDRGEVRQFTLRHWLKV

Sequence of serotonin reuptake (P31645 whole entry): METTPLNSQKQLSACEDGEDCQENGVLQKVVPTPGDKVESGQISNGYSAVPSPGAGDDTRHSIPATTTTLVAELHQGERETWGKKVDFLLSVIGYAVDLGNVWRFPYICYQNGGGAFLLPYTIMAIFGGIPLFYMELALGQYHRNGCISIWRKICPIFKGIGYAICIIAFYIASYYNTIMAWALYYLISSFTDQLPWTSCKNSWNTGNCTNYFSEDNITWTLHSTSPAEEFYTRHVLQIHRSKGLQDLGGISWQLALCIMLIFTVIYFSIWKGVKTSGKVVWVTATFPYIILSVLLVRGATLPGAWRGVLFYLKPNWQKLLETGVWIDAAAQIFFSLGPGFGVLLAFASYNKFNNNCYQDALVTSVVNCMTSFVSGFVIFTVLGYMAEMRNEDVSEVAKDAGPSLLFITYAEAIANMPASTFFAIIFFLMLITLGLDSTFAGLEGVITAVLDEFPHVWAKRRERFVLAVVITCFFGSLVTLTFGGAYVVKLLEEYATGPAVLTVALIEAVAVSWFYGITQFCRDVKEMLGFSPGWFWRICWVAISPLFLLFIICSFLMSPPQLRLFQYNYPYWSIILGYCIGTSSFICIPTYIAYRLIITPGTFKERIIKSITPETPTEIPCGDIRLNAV

CCOc1ccccc1O[C@@H](c1ccccc1)[C@@H]1CNCCO1 (racemic) [Reboxetine, 2-[α-(2-ethoxyphenoxy)benzyl]morpholine]
serotonin reuptake inhibitory activity [1]: only marginal | effect in the 8-OH-DPAT hypothermia test [2]: ineffective | dopamine reuptake inhibitory activity [3]: no dopamine reuptake inhibitory activity
